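Results reflect a 48-hour exposure of cells in 96-well plates to compound at five concentrations. Abbreviation: GI50, concentration required for 50% inhibition of growth. TGI marks complete inhibition of growth.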
Columns and labels:
Assay in all cases: growth of human tumour cells (NCI), 48 h
[1] = system: 786-0 renal
[2] = system: A498 renal
[3] = system: A549 NSCLC
[4] = system: ACHN renal
[5] = system: BT-549 breast
[6] = system: CAKI-1 renal
[7] = system: CCRF-CEM leukemia
[8] = system: COLO 205 colon
[9] = system: DU-145 prostate
[10] = system: EKVX NSCLC
[11] = system: HCC-2998 colon
[12] = system: HCT-116 colon
[13] = system: HCT-15 colon
[14] = system: HL-60(TB) leukemia
[15] = system: HOP-62 NSCLC
[16] = system: HOP-92 NSCLC
[17] = system: HS 578T breast
[18] = system: HT29 colon
[19] = system: IGROV1 ovarian
[20] = system: K-562 leukemia
[21] = system: KM12 colon
[22] = system: LOX IMVI melanoma
[23] = system: M14 melanoma
[24] = system: MALME-3M melanoma
[25] = system: MCF7 breast
[26] = system: MDA-MB-231 breast
[27] = system: MDA-MB-435
[28] = system: MOLT-4 leukemia
[29] = system: NCI-H226 lung
[30] = system: NCI-H23 lung
[31] = system: NCI-H460 lung
[32] = system: NCI-H522 lung
[33] = system: OVCAR-3 ovarian
[34] = system: OVCAR-4 ovarian
[35] = system: OVCAR-5 ovarian
[36] = system: OVCAR-8 ovarian
[37] = system: PC-3 prostate
[38] = system: RPMI-8226 leukemia
[39] = system: SF-268 CNS
[40] = system: SF-295 CNS
[41] = system: SF-539 CNS
[42] = system: SK-MEL-28 melanoma
[43] = system: SK-MEL-5 melanoma
[44] = system: SK-OV-3 ovarian
[45] = system: SN12C renal
[46] = system: SNB-19 CNS
[47] = system: SNB-75 CNS
[48] = system: SR leukemia
[49] = system: SW-620 colon
[50] = system: T-47D breast
[51] = system: TK-10 renal
[52] = system: U251 CNS
[53] = system: UACC-257 melanoma
[54] = system: UACC-62 melanoma
[55] = system: UO-31 renal
[56] = system: MDA-MB-468 breast
[57] = system: RXF 393 renal
[58] = system: SK-MEL-2 melanoma

COc1cccc(C(N)=Nc2ccc(OCCCCCCCCn3cncn3)cc2)c1
GI50 [1]: 0.812 µM
TGI [1]: 26.9 µM
GI50 [2]: 14.9 µM
TGI [2]: 59.5 µM
GI50 [3]: 0.581 µM
TGI [3]: > 100 µM
GI50 [4]: 0.65 µM
TGI [4]: 39.4 µM
GI50 [5]: 0.975 µM
TGI [5]: 22.3 µM
GI50 [6]: 0.473 µM
TGI [6]: 45.4 µM
GI50 [7]: 0.292 µM
TGI [7]: 10.4 µM
GI50 [8]: 0.315 µM
TGI [8]: 1.09 µM
GI50 [9]: 0.417 µM
TGI [9]: 31.5 µM
GI50 [10]: 0.429 µM
TGI [10]: > 75.2 µM
GI50 [11]: 0.38 µM
TGI [11]: 3.52 µM
GI50 [12]: 0.417 µM
TGI [12]: 17.1 µM
GI50 [13]: 0.33 µM
TGI [13]: 12.4 µM
GI50 [14]: 0.306 µM
TGI [14]: 1.08 µM
GI50 [15]: 0.614 µM
TGI [15]: 18.5 µM
GI50 [16]: 1.63 µM
TGI [16]: 30.2 µM
GI50 [17]: 0.374 µM
TGI [17]: 38.9 µM
GI50 [18]: 0.319 µM
TGI [18]: 1.42 µM
GI50 [19]: 0.53 µM
TGI [19]: 21 µM
GI50 [20]: 0.23 µM
TGI [20]: > 100 µM
GI50 [21]: 0.425 µM
TGI [21]: > 65.5 µM
GI50 [22]: 0.522 µM
TGI [22]: 11.8 µM
GI50 [23]: 0.324 µM
TGI [23]: 18.9 µM
GI50 [24]: 0.31 µM
TGI [24]: 17.4 µM
GI50 [25]: 0.266 µM
TGI [25]: 15 µM
GI50 [26]: 0.385 µM
TGI [26]: 4.89 µM
GI50 [27]: 0.13 µM
TGI [27]: 0.378 µM
GI50 [28]: 0.596 µM
TGI [28]: > 100 µM
GI50 [29]: 0.295 µM
TGI [29]: 2.05 µM
GI50 [30]: 0.385 µM
TGI [30]: 15.5 µM
GI50 [31]: 0.356 µM
TGI [31]: > 33.5 µM
GI50 [32]: 0.274 µM
TGI [32]: 1.29 µM
GI50 [33]: 0.369 µM
TGI [33]: 25.4 µM
GI50 [34]: 3.18 µM
TGI [34]: > 100 µM
GI50 [35]: 0.493 µM
TGI [35]: > 45.6 µM
GI50 [36]: 0.342 µM
TGI [36]: 2.1 µM
GI50 [37]: 0.424 µM
TGI [37]: > 50.3 µM
GI50 [38]: 0.293 µM
TGI [38]: 4.87 µM
GI50 [39]: 1.99 µM
TGI [39]: 42.8 µM
GI50 [40]: 0.32 µM
TGI [40]: 11 µM
GI50 [41]: 0.235 µM
TGI [41]: 0.585 µM
GI50 [42]: 0.693 µM
TGI [42]: 24.1 µM
GI50 [43]: 0.286 µM
TGI [43]: 1.09 µM
GI50 [44]: 0.54 µM
TGI [44]: 49.2 µM
GI50 [45]: 0.485 µM
TGI [45]: 14.3 µM
GI50 [46]: 0.576 µM
TGI [46]: > 67.7 µM
GI50 [47]: 0.262 µM
TGI [47]: > 45.4 µM
GI50 [48]: 0.319 µM
TGI [48]: > 56.9 µM
GI50 [49]: 0.387 µM
TGI [49]: > 100 µM
GI50 [50]: 0.426 µM
TGI [50]: > 72.4 µM
GI50 [51]: 0.799 µM
TGI [51]: > 100 µM
GI50 [52]: 0.333 µM
TGI [52]: 4.57 µM
GI50 [53]: 2.02 µM
TGI [53]: 27.8 µM
GI50 [54]: 0.435 µM
TGI [54]: 17.2 µM
GI50 [55]: 0.544 µM
TGI [55]: 19.9 µM

O=C1Nc2cc(Cl)ccc2/C1=C/c1cccc(OCc2ccccn2)c1
GI50 [1]: 14 µM
TGI [1]: 28.9 µM
GI50 [2]: 22.1 µM
TGI [2]: 76.9 µM
GI50 [3]: 13 µM
TGI [3]: 62.2 µM
GI50 [4]: 6.07 µM
TGI [4]: 19.9 µM
GI50 [5]: 3.92 µM
TGI [5]: 16.5 µM
GI50 [6]: 2.73 µM
TGI [6]: 14.1 µM
GI50 [7]: 3.1 µM
TGI [7]: > 100 µM
GI50 [8]: 10.5 µM
TGI [8]: 22.2 µM
GI50 [9]: 10.7 µM
TGI [9]: > 100 µM
GI50 [10]: 5.41 µM
TGI [10]: 67.4 µM
GI50 [11]: 11.4 µM
TGI [11]: 26.2 µM
GI50 [12]: 3.07 µM
TGI [12]: 10.5 µM
GI50 [13]: 2.71 µM
TGI [13]: 16.1 µM
GI50 [14]: 2.13 µM
TGI [14]: 5.1 µM
GI50 [15]: 6.95 µM
TGI [15]: 25 µM
GI50 [16]: 1.85 µM
TGI [16]: 8.15 µM
GI50 [17]: 2.01 µM
TGI [17]: 6.72 µM
GI50 [18]: 4.47 µM
TGI [18]: 19.4 µM
GI50 [19]: 3.89 µM
TGI [19]: 22.9 µM
GI50 [20]: 2.82 µM
TGI [20]: > 100 µM
GI50 [21]: 3.77 µM
TGI [21]: 87.4 µM
GI50 [22]: 2.06 µM
TGI [22]: 4.92 µM
GI50 [23]: 4.43 µM
TGI [23]: 16.8 µM
GI50 [24]: 4.23 µM
TGI [24]: 46.6 µM
GI50 [25]: 1.93 µM
TGI [25]: 11.4 µM
GI50 [26]: 2.46 µM
TGI [26]: 9.13 µM
GI50 [27]: 1.92 µM
TGI [27]: 4.25 µM
GI50 [56]: 2.54 µM
TGI [56]: 9.08 µM
GI50 [28]: 3.02 µM
TGI [28]: 11.3 µM
GI50 [29]: 11.3 µM
TGI [29]: 70.4 µM
GI50 [30]: 3.39 µM
TGI [30]: 16 µM
GI50 [31]: 3.15 µM
TGI [31]: 12.3 µM
GI50 [32]: 2.43 µM
TGI [32]: 6.63 µM
GI50 [33]: 3.33 µM
TGI [33]: 16.2 µM
GI50 [34]: 5.73 µM
TGI [34]: 35.5 µM
GI50 [35]: 7.62 µM
TGI [35]: 26.8 µM
GI50 [36]: 3.79 µM
TGI [36]: 16.3 µM
GI50 [37]: 5.52 µM
TGI [37]: > 100 µM
GI50 [38]: 2.93 µM
TGI [38]: 40.3 µM
GI50 [57]: 3.08 µM
TGI [57]: 14.5 µM
GI50 [39]: 4.82 µM
TGI [39]: > 100 µM
GI50 [40]: 5.69 µM
TGI [40]: 25 µM
GI50 [41]: 2.63 µM
TGI [41]: 8.05 µM
GI50 [58]: 2.9 µM
TGI [58]: 9.3 µM
GI50 [42]: 5.66 µM
TGI [42]: 32.3 µM
GI50 [43]: 2.81 µM
TGI [43]: 13.4 µM
GI50 [44]: 10.3 µM
TGI [44]: 26.8 µM
GI50 [45]: 6.38 µM
TGI [45]: 26.1 µM
GI50 [46]: 11 µM
TGI [46]: 27.8 µM
GI50 [47]: 3.05 µM
TGI [47]: 38.8 µM
GI50 [48]: 2.58 µM
TGI [48]: 10.3 µM
GI50 [49]: 3.1 µM
TGI [49]: 14.3 µM
GI50 [50]: 3.01 µM
TGI [50]: 22.6 µM
GI50 [51]: 15.4 µM
TGI [51]: 34.7 µM
GI50 [52]: 4.21 µM
TGI [52]: 15.4 µM
GI50 [53]: 7.63 µM
TGI [53]: > 100 µM
GI50 [54]: 2.7 µM
TGI [54]: 13.9 µM
GI50 [55]: 3.03 µM
TGI [55]: 25 µM

From PubChem BioAssay (NCI)
